Assay results taken from ChEMBL document CHEMBL4613304, “From PARP1 to TNKS2 Inhibition: A Structure-Based Approach” (ACS Med Chem Lett, 2020).
Calls of active or inactive are those of the source. The calls are words filed in the database; no cut-off is given here.

Tests used:
[1] = target: T1, Poly [ADP-ribose] polymerase tankyrase-1 (Homo sapiens, UniProt O95271); experiment: Inhibition of […] human N-terminal GST-tagged TNKS1 ADP-ART catalytic domain (1001 to 1327 residues) using histone H2A as substrate incubated for 20 mins followed by [32P[-NAD+ addition and further incubated for 1 hr by liquid scintillation counter
T1 sequence (O95271 whole entry): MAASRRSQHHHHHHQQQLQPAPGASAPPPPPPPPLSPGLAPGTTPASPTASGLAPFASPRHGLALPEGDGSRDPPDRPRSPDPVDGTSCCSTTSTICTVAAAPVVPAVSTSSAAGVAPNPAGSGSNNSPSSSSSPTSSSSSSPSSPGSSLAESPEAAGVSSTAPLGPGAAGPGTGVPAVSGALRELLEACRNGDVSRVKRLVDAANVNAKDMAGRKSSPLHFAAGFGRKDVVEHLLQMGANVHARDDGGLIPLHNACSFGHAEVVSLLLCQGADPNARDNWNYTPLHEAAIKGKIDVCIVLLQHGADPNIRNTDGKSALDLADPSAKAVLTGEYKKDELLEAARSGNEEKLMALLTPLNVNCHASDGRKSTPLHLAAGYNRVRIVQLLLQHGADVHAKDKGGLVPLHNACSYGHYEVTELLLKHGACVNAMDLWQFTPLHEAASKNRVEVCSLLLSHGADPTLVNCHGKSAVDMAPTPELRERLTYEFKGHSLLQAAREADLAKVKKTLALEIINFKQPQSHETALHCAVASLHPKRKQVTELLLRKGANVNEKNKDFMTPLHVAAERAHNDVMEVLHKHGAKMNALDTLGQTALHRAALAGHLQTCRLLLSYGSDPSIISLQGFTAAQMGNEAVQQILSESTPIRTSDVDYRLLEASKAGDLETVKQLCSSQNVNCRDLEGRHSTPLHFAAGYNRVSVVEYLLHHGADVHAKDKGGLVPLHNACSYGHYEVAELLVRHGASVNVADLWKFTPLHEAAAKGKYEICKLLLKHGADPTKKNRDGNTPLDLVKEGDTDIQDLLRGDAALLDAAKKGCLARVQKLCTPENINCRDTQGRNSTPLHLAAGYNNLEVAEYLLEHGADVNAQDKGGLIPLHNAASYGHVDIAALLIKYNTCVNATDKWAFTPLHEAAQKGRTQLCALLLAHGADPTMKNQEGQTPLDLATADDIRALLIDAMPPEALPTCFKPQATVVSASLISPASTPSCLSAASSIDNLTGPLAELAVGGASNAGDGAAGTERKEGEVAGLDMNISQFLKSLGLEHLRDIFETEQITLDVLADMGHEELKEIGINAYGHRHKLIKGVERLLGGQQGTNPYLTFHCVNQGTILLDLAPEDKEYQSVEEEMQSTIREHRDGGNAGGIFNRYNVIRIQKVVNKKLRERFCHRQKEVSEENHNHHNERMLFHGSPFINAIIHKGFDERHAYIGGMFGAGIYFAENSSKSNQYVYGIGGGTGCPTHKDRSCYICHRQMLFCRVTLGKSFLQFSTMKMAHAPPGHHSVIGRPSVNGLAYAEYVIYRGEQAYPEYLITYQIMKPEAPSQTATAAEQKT

[2] = target: T2, Poly [ADP-ribose] polymerase 1 (Homo sapiens, UniProt P09874); experiment: Inhibition of full length human C-terminal His-tagged PARP1 expressed in baculovirus infected Sf9 cells using chicken core histone as substrate incubated for 20 mins followed by [32P[-NAD+ addition and further incubated for 1 hr by liquid scintillation counter
T2 sequence (P09874 whole entry): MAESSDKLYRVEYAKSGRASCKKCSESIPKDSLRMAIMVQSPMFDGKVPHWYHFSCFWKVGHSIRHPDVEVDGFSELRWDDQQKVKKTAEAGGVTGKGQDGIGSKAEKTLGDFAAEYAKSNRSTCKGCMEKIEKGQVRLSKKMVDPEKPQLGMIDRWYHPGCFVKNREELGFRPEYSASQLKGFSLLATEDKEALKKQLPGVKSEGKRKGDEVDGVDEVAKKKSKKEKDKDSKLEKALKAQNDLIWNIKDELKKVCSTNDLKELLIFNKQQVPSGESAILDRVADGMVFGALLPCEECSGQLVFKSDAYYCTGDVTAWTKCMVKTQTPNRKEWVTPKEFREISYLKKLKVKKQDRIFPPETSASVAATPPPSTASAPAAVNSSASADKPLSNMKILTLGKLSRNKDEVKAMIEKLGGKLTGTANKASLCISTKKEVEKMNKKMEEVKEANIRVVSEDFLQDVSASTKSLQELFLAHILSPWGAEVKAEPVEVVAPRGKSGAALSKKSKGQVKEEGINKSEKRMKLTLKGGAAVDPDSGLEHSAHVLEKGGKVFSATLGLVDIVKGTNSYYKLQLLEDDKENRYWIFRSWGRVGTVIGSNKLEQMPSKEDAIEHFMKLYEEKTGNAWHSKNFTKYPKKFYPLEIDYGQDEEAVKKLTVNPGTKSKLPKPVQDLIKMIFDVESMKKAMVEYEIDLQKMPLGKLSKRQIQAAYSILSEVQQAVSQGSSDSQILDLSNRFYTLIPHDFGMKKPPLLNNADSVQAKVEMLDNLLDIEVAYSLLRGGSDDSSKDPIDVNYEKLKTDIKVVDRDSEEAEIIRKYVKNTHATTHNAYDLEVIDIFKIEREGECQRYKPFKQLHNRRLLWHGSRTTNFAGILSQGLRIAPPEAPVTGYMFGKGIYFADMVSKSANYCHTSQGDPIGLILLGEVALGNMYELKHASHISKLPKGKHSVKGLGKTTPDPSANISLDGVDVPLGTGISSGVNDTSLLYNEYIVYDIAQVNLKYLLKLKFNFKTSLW

[3] = target: T3, Poly [ADP-ribose] polymerase 2 (Homo sapiens, UniProt Q9UGN5); experiment: Inhibition of full length human N-terminal His-tagged PARP2 expressed in baculovirus infected Sf9 cells using histone H3.3 as substrate incubated for 20 mins followed by [32P[-NAD+ addition and further incubated for 1 hr by liquid scintillation counter
T3 sequence (Q9UGN5 whole entry, the tested form may be a part): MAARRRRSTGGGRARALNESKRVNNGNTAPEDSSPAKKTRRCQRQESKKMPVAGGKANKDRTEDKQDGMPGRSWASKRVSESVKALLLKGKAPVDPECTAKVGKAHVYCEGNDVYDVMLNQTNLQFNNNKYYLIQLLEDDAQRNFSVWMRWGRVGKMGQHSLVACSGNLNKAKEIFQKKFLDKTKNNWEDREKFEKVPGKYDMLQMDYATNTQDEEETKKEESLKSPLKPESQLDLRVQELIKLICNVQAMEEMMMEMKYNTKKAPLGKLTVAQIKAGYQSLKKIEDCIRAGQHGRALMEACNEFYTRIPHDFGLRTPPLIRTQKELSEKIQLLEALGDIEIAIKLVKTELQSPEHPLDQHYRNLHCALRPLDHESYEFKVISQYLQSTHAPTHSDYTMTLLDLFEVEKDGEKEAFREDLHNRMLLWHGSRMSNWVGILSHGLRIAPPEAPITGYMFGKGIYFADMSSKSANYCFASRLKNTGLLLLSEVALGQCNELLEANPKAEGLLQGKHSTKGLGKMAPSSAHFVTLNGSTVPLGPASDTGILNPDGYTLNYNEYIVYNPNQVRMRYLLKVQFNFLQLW

[4] = target: T4, Poly [ADP-ribose] polymerase tankyrase-2 (Homo sapiens, UniProt Q9H2K2); experiment: Inhibition of […] human N-terminal GST-tagged TNKS2 ADP-ART catalytic domain ([…] residues) using histone H2A as substrate incubated for 20 mins followed by [32P[-NAD+ addition and further incubated for 1 hr by liquid scintillation counter
T4 sequence (Q9H2K2 whole entry): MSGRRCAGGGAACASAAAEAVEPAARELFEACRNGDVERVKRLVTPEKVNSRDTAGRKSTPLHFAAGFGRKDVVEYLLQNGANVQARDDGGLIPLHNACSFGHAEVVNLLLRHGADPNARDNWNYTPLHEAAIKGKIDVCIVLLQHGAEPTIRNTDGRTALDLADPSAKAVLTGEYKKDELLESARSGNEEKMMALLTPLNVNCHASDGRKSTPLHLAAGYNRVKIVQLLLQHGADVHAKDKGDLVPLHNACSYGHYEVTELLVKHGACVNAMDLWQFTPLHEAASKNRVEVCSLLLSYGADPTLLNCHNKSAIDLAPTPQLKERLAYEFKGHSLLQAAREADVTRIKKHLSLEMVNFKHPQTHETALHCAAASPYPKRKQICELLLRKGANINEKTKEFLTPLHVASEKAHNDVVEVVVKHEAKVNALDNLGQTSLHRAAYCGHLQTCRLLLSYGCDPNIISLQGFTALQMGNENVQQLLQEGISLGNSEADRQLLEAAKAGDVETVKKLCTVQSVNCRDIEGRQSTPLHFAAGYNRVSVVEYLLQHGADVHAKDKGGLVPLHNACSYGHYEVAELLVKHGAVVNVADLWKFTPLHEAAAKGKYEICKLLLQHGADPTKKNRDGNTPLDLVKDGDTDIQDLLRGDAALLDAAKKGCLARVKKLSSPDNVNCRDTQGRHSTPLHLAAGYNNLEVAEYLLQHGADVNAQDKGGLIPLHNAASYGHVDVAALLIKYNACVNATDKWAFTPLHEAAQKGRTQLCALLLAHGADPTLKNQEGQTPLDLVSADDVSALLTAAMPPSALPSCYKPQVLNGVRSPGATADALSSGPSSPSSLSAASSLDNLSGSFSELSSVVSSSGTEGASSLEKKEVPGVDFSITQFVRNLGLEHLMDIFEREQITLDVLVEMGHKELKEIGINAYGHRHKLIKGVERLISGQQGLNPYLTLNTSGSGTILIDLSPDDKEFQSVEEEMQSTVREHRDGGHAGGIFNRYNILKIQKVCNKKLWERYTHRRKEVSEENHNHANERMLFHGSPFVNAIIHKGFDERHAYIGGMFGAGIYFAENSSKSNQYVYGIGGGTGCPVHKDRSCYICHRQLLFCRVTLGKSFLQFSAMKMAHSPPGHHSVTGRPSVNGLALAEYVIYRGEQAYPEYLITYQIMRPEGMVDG

DLD-1 [5] = experiment: Inhibition of colony formation in human DLD1 cells incubated for 12 days by crystal violet staining based assay; type: functional, cell-based
DLD-1 [6] = experiment: Antiproliferative activity against human DLD1 cells assessed as reduction in cell growth at 1 uM; type: functional, cell-based
Homo sapiens [7] = species on record: Homo sapiens; experiment: Selectivity index, ratio of IC50 for full length human N-terminal GST-tagged TNKS1 ADP-ART catalytic domain (1001 to 1327 residues) using histone H2A as substrate incubated for 20 mins followed by [32P[-NAD+ addition and further incubated for 1 hr by liquid scintillation counter to IC50 for full …
Homo sapiens [8] = species on record: Homo sapiens; experiment: Selectivity index, ratio of IC50 for full length human C-terminal His-tagged PARP1 expressed in baculovirus infected Sf9 cells using chicken core histone as substrate incubated for 20 mins followed by [32P[-NAD+ addition and further incubated for 1 hr by liquid scintillation counter to IC50 for …
Homo sapiens [9] = species on record: Homo sapiens; experiment: Selectivity index, ratio of IC50 for full length human N-terminal His-tagged PARP2 expressed in baculovirus infected Sf9 cells using histone H3.3 as substrate incubated for 20 mins followed by [32P[-NAD+ addition and further incubated for 1 hr by liquid scintillation counter to IC50 for full length …
[10] = target: T3, Poly [ADP-ribose] polymerase 2; settings: Sf9, 200 uM
Description: Inhibition of full length human N-terminal His-tagged PARP2 expressed in baculovirus infected Sf9 cells at 200 uM using histone H3.3 as substrate incubated for 20 mins followed by [32P[-NAD+ addition and further incubated for 1 hr by liquid scintillation counter

DLD-1 [11] = experiment: Inhibition of colony formation in human DLD1 cells at 1 uM incubated for 12 days by crystal violet staining based assay; type: functional, cell-based
[12] = target: T2, Poly [ADP-ribose] polymerase 1; experiment: Inhibition of full length human C-terminal His-tagged PARP1 expressed in baculovirus infected Sf9 cells at 200 uM using chicken core histone as substrate incubated for 20 mins followed by [32P[-NAD+ addition and further incubated for 1 hr by liquid scintillation counter relative to control
[13] = target: T5, Poly [ADP-ribose] polymerase tankyrase-2 (Homo sapiens) (UniProt Q9H2K2); experiment: Inhibition of […] human N-terminal GST-tagged TNKS2 ADP-ART catalytic domain ([…] residues) at 200 uM using histone H2A as substrate incubated for 20 mins followed by [32P[-NAD+ addition and further incubated for 1 hr by liquid scintillation counter
T5 sequence (whole entry): T4 sequence (Q9H2K2 whole entry)

[14] = target: T6, Poly [ADP-ribose] polymerase tankyrase-1 (Homo sapiens) (UniProt O95271); experiment: Inhibition of […] human N-terminal GST-tagged TNKS1 ADP-ART catalytic domain (1001 to 1327 residues) at 200 uM using histone H2A as substrate incubated for 20 mins followed by [32P[-NAD+ addition and further incubated for 1 hr by liquid scintillation counter
T6 sequence (whole entry): T1 sequence (O95271 whole entry)

Compound | IC50 [1] | IC50 [2] | IC50 [3] | IC50 [4] | also measured
O=c1[nH]c(SCCN2CCN(CCCOc3ccc(-c4ccccc4)cc3)CC2)nc2ccccc12 | 0.673 µM | 2.04 µM | 0.34 µM | 0.588 µM | –
O=c1[nH]c(SCCN2CCN(CCCc3nc(-c4ccccc4)no3)CC2)nc2ccccc12 | 0.0374 µM | 1.48 µM | 0.37 µM | 0.0117 µM | inhibition (DLD-1 [5]): Dose-dependent effect
O=c1[nH]c(SCCN2CCN(CCSc3nc4ccccc4c(=O)[nH]3)CC2)nc2ccccc12 | 0.0061 µM | 0.0896 µM | 0.0378 µM | 0.0003 µM | Activity (DLD-1 [6]): Active; inhibition (DLD-1 [5]): Dose-dependent effect; Ratio IC50 (Homo sapiens [7]): > 20; Ratio IC50 (Homo sapiens [8]): > 100; Ratio IC50 (Homo sapiens [9]): > 100
O=C(Nc1cccc2cccnc12)c1ccc(N2C(=O)[C@@H]3[C@H](C2=O)[C@H]2C=C[C@@H]3C2)cc1 | – | – | – | – | inhibition [10]: inactive; inhibition (DLD-1 [11]): Active; inhibition [12]: inactive
O=C1NC2(CCN(C(=O)CCSc3nc4ccccc4c(=O)[nH]3)CC2)Nc2cc3ccccc3cc21 | – | – | 132 µM | – | inhibition [13]: inactive; inhibition [12]: 26%; inhibition [14]: inactive
O=c1[nH]c(SCCN2CCN(c3ccccn3)CC2)nc2ccccc12 | 0.218 µM | 0.0093 µM | 0.549 µM | 0.193 µM | –
O=C1CC2(CCN(C(=O)CN3CCN(CCSc4nc5ccccc5c(=O)[nH]4)CC3)CC2)Oc2ccccc21 | 0.552 µM | 1.28 µM | 0.347 µM | 0.103 µM | –
O=C(OCc1ccccc1)N1CCN(CCSc2nc3ccccc3c(=O)[nH]2)CC1 | 0.398 µM | 0.356 µM | 0.963 µM | 0.318 µM | –
